Source: patent US9951065B2 (Gilead Sciences, Inc., priority 2015, dated 2018)

Each compound was assayed against T1, IDO1 (Homo sapiens, UniProt P14902) (assay: Cell-based (HeLa) assay for measurement of IDO1 inhibition (kynurenine levels in supernatant after IFNγ induction)). Conditions: HeLa cells, IFNγ-induced IDO1, kynurenine in supernatant after 48 hour incubation; geometric mean of a minimum of four determinations.
T1 construct: HeLa cells were treated with a test compound in the presence of IFNγ, which induces IDO1 expression; host or cells: H1-HeLa cells, IDO1 induced with IFNγ
T1 sequence (P14902 whole entry): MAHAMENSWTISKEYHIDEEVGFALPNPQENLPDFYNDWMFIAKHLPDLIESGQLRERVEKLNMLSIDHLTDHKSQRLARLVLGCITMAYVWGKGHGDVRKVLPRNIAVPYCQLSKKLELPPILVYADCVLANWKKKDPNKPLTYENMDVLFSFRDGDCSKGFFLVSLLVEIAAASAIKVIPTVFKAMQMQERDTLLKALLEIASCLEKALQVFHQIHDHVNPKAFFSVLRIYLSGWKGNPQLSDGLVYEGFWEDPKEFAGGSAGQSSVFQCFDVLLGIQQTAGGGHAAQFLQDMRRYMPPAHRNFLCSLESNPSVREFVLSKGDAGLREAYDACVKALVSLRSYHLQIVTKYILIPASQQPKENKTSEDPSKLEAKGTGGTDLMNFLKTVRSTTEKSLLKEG
Method in brief: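 IDO1 activity is read as kynurenine released into the medium, detected with Ehrlich's reagent (p-dimethylaminobenzaldehyde) at 480 nm after TCA treatment. HeLa cells were exposed 48 h to compounds in 0.5% DMSO alongside IFNγ induction. Values normalized to no-IFNγ and IFNγ controls; four-parameter EC50 given as geometric mean of ≥4 determinations.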

| SMILES | EC50 |
| --- | --- |
| CC(=O)NCc1nc2nccc(/C(=N/O)Nc3ccc(F)c(Cl)c3)c2[nH]1 [Example 145, N-((7-(N-(3-Chloro-4-fluorophenyl)-N′-hydroxycarbamimidoyl)-1H-imidazo[4,5-b]pyridin-2-yl)methyl)acetamide] | 9.76 µM |
| O/N=C(\Nc1ccc(F)c(Cl)c1)c1ccnc2nc(CCNC3CC3)[nH]c12 [Example 207, N-(3-chloro-4-fluorophenyl)-2-(2-(cyclopropylamino)ethyl)-N′-hydroxy-3H-imidazo[4,5-b]pyridine-7-carboximidamide] | 1.26 µM |
| NCc1nc2c(/C(=N/O)Nc3ccc(F)c(Cl)c3)cc(F)c(F)c2[nH]1 [Example 47, 2-(Aminomethyl)-N-(3-chloro-4-fluorophenyl)-4,5-difluoro-N′-hydroxy-1H-benzo[d]imidazole-7-carboximidamide] | 1.07 µM |
| Nc1nc2c(F)c(F)cc(/C(=N/O)Nc3ccc(F)c(C(F)(F)F)c3)c2[nH]1 [Example 17, 2-Amino-4,5-difluoro-N-(4-fluoro-3-(trifluoromethyl)phenyl)-N′-hydroxy-1H-benzo[d]imidazole-7-carboximidamide] | 1.09 µM |
| CNCCc1nc2nccc(/C(=N/O)Nc3ccc(F)c(Cl)c3)c2[nH]1 [Example 188, N-(3-Chloro-4-fluorophenyl)-N′-hydroxy-2-(2-(methylamino)ethyl)-1H-imidazo[4,5-b]pyridine-7-carboximidamide] | 1.51 µM |
| CC(C)Nc1nc2nccc(/C(=N/O)Nc3ccc(F)c(Cl)c3)c2[nH]1 [Example 165, N-(3-Chloro-4-fluorophenyl)-N′-hydroxy-2-(isopropylamino)-1H-imidazo[4,5-b]pyridine-7-carboximidamide] | 0.705 µM |
| Cc1nc2nccc(/C(=N/O)Nc3ccc(F)c(Cl)c3)c2[nH]1 [Example 107, N-(3-Chloro-4-fluorophenyl)-N′-hydroxy-2-methyl-1H-imidazo[4,5-b]pyridine-7-carboximidamide] | 1.92 µM |
| NCCc1nc2c(F)c(F)cc(/C(=N/O)Nc3ccc(F)c(Cl)c3)c2[nH]1 [Example 211, 2-(2-aminoethyl)-N-(3-chloro-4-fluorophenyl)-4,5-difluoro-N′-hydroxy-1H-benzo[d]imidazole-7-carboximidamide] | > 10 µM |
| CN(C)c1nc2nccc(/C(=N/O)Nc3ccc(F)c(Cl)c3)c2[nH]1 [Example 169, N-(3-Chloro-4-fluorophenyl)-2-(dimethylamino)-N′-hydroxy-1H-imidazo[4,5-b]pyridine-7-carboximidamide] | 6.27 µM |
| O/N=C(\Nc1ccc(C(F)(F)F)cc1)c1ccnc2nc[nH]c12 [Example 91, N′-Hydroxy-N-(4-(trifluoromethyl)phenyl)-1H-imidazo[4,5-b]pyridine-7-carboximidamide] | 2.24 µM |
| CC(C)NCc1nc2c(/C(=N/O)Nc3ccc(F)c(Cl)c3)cc(F)c(F)c2[nH]1 [Example 51, N-(3-Chloro-4-fluorophenyl)-6,7-difluoro-N′-hydroxy-2-((isopropylamino)methyl)-1H-benzo[d]imidazole-4-carboximidamide] | 0.566 µM |
| O/N=C(\Nc1ccc(F)c(Cl)c1)c1ccnc2nc(-c3ncc[nH]3)[nH]c12 [Example 149, N-(3-Chloro-4-fluorophenyl)-N′-hydroxy-2-(1H-imidazol-2-yl)-1H-imidazo[4,5-b]pyridine-7-carboximidamide] | 0.529 µM |
| O/N=C(\Nc1cccc2ccccc12)c1ccnc2nc[nH]c12 [Example 104, N′-hydroxy-N-(naphthalen-1-yl)-1H-imidazo[4,5-b]pyridine-7-carboximidamide] | 1.97 µM |
| O/N=C(\Nc1ccc(F)c(Cl)c1)c1ccnc2nc(CNCCCN3CCOCC3)[nH]c12 [Example 131, N-(3-Chloro-4-fluorophenyl)-N′-hydroxy-2-(((3-morpholinopropyl)amino)methyl)-1H-imidazo[4,5-b]pyridine-7-carboximidamide] | 3.02 µM |
| O/N=C(\Nc1cc(F)cc(C(F)(F)F)c1)c1ccnc2nc[nH]c12 [Example 75, N-(3-Fluoro-5-(trifluoromethyl)phenyl)-N′-hydroxy-1H-imidazo[4,5-b]pyridine-7-carboximidamide] | 2.11 µM |
| COc1cc(N/C(=N\O)c2ccnc3nc[nH]c23)ccc1F [Example 106, N-(4-Fluoro-3-methoxyphenyl)-N′-hydroxy-1H-imidazo[4,5-b]pyridine-7-carboximidamide] | 5.54 µM |

Now from value to compound:

| EC50 | SMILES |
| --- | --- |
| 3.84 µM | O/N=C(\Nc1ccc(F)c(Cl)c1)c1ccnc2nc(NCCNCC(F)F)[nH]c12 [Example 230, N-(3-chloro-4-fluorophenyl)-2-((2-((2,2-difluoroethyl)amino)ethyl)amino)-N′-hydroxy-1H-imidazo[4,5-b]pyridine-7-carboximidamide] |
| 0.952 µM | O/N=C(\Nc1cccc(Cl)c1)c1ccnc2nc(CCN3CCCC3)[nH]c12 [Example 268, N-(3-chlorophenyl)-N′-hydroxy-2-(2-(pyrrolidin-1-yl)ethyl)-1H-imidazo[4,5-b]pyridine-7-carboximidamide] |
| 1.29 µM | CNCc1nc2c(F)ccc(/C(=N/O)Nc3ccc(F)c(Cl)c3)c2[nH]1 [Example 290, N-(3-chloro-4-fluorophenyl)-4-fluoro-N′-hydroxy-2-((methylamino)methyl)-1H-benzo[d]imidazole-7-carboximidamide] |

Same assay, conditions: HeLa cells, IFNγ-induced IDO1, kynurenine in supernatant, 48 hour incubation; geometric mean of a minimum of four determinations

| EC50 | SMILES |
| --- | --- |
| 5.66 µM | NS(=O)(=O)CCNc1nc2nccc(/C(=N/O)Nc3ccc(F)c(Cl)c3)c2[nH]1 [Example 492, N-(3-chloro-4-fluorophenyl)-N′-hydroxy-2-((2-sulfamoylethyl)amino)-1H-imidazo[4,5-b]pyridine-7-carboximidamide] |
| 0.193 µM | CN1CCC[C@@H](Nc2nc3c(F)c(F)cc(/C(=N/O)Nc4cccc(Cl)c4)c3[nH]2)C1 [Example 460, (R)—N-(3-chlorophenyl)-4,5-difluoro-N′-hydroxy-2-((1-methylpiperidin-3-yl)amino)-1H-benzo[d]imidazole-7-carboximidamide] |
| 1.4 µM | CC(CN(C)C)Nc1nc2c(F)c(F)cc(/C(=N/O)Nc3ccc(F)c(Cl)c3)c2[nH]1 (stereo not shown) [Example 378, N-(3-chloro-4-fluorophenyl)-2-((1-(dimethylamino)propan-2-yl)amino)-4,5-difluoro-N′-hydroxy-1H-benzo[d]imidazole-7-carboximidamide] |
| 1.02 µM | O/N=C(\Nc1ccc(F)c(Cl)c1)c1cc(F)c(F)c2nc(N[C@@H]3CCCCNC3)[nH]c12 [Example 463, (R)-2-(azepan-3-ylamino)-N-(3-chloro-4-fluorophenyl)-4,5-difluoro-N′-hydroxy-1H-benzo[d]imidazole-7-carboximidamide] |
| 0.998 µM | CN(C)[C@@H]1CCCC[C@H]1Nc1nc2c(F)c(F)cc(/C(=N/O)Nc3ccc(F)c(Cl)c3)c2[nH]1 [Example 437, N-(3-chloro-4-fluorophenyl)-2-(((1R,2R)-2-(dimethylamino)cyclohexyl)amino)-4,5-difluoro-N′-hydroxy-1H-benzo[d]imidazole-7-carboximidamide] |
| 1.48 µM | CN(CCc1nc2nccc(/C(=N/O)Nc3ccc(F)c(Cl)c3)c2[nH]1)CC1CCCCC1 [Example 391, N-(3-chloro-4-fluorophenyl)-2-(2-((cyclohexylmethyl)(methyl)amino)ethyl)-N′-hydroxy-1H-imidazo[4,5-b]pyridine-7-carboximidamide] |
